Test results: US20240009170A1, “INHIBITION OF GLYCOGEN SYNTHASE KINASE-3 (GSK-3)” (Brown University, priority 2020, published 2024)

Columns and labels:
Type in all cases: cell-based, Human
HCT-116 = assay: Flow cytometric analysis of cell surface markers, HCT-116; conditions: post-treatment
Description: (§1) FIG. 12 is a set of bar graphs showing flow cytometric analyses of cell surface markers of tumor and immune cells treated with 9-ING-41 in vitro. FIG. 12(A) HCT-116, FIG. 12(B) HT-29, FIG. 12(C) TALL-104, and FIG. 12(D) NK-92 cells were treated with indicated concentrations of 9-ING-41 for forty-eight hours, stained for indicated cell surface marker expression, and analyzed with a BD LSRII. Statistical significance was determined using two-tailed unpaired T tests.
(§2) To further understand the differential 9-ING-41-mediated impacts on protein expression, the inventors treated tumor and immune cells in vitro with 9-ING-41, then performed a flow cytometric analysis for expression of cell surface markers. […] A similar trend occurred in HT-29 cells, although not statistically significant. […] FIG. 10(C). […] FIG. 10(D).

HT-29 = assay: Flow cytometric analysis of cell surface markers, HT-29; conditions: post-treatment, 48 hours
Description: as §1, §2

NK-92 = assay: Flow cytometric analysis of cell surface markers, NK-92; conditions: 48 hours
Description: as §1, §2

Structure (SMILES): Cn1cc(C2=C(c3coc4ccc(F)cc34)C(=O)NC2=O)c2cc3c(cc21)OCO3 [9-ING-41]
- DR5 expression (HCT-116): significant decreased
- ICAM-1 expression (HCT-116): significant increase
- HLA-E and PD-L1 surface expression (HCT-116; 48 hours): statistically significant increase
- HLA-E and PD-L1 surface expression (HT-29): statistically significant increase
- TRAIL and LAG3 surface expression (NK-92): increases
- checkpoint molecule NKG2A surface expression (NK-92): statistically significant decreases
